In US11685741B2, “Fluorescent probes” (University of Massachusetts, priority 2017, dated 2023):

Assays:
[1] = tested on: cells in the culture experiments; experiment: Cell permeability and toxicity in the culture experiments; format: cell-based; settings: for cell permeability: live cells in culture
[2] = tested on: Bovine aortic endothelial cells (BAEC); experiment: Confocal imaging of Fe2+ in BAEC cells; format: cell-based; settings: for fluorescence of cells with sensor only / fluorescence of cells treated with Fe^2+ then Bpy: 10 μM sensor; for fluorescence of cells treated with Fe^2+ then Bpy: 100 μM Fe^2+ overnight, versus Fe^2+ supplement; for fluorescence of cells treated with Fe^2+ then Bpy / fluorescence of Bpy-treated cells: 1 mM Bpy; for fluorescence of Fe^2+-treated cells versus unsupplemented: 100 μM ferrous ammonium sulfate overnight, then 10 μM sensor 30 min; for fluorescence of Bpy-treated cells: versus control cells
Experimental: Bovine aortic endothelial cells BAEC cells, at an approximately density of 1.3 million/ml in complete EBM medium, were incubated with 100 μM ferrous ammonium sulfate (FAS, Fe (NH4)2(SO4)2 from a 10 mM stock solution) for overnight at 37° C. in a humid atmosphere of 5% CO2 and then the cells were washed with fresh EBM medium to remove excess Fe^2+. Then cells were incubated with Rh101D (10 μM, from 500 μM stock solution in DMF) at 37° C. for 30 min and then cells were washed with EBM media and then imaged. In addition, some cells were treated firstly with 100 μM Fe^2+ overnight and then the cells were washed with fresh EBM medium. For chelation experiments, Fe^2+-loaded cells or untreated cells were incubated with 1 mM 2,2′-bipyridyl (Bpy) at 37° C. for 30 min, then sensor was added followed by washing with the media, and then imaging was done. Controls were imaged without incubation with Fe^2+ or 2,2′-bipyridyl. HCT-116, a human colon adenocarcinoma cell line were used for concentration determination of Fe^2+ with the help of the ratiometric sensor Rh101D. HCT-116 were maintained in McCoy's 5A medium supplemented with 10% fetal bouvine serum and 5% antibiotic antimycotic in a 5% CO2 atmosphere at 37° C. Cultures were divided 1:2 every 48 h to an approximate cell density of 1.21 million cells/ml and used for experiments after 24 h. All experiments were performed with cells in the logarithmic growth phase.
A Zeiss LSM 710 laser-scanning confocal microscope system was used for cell imaging experiments in collaboration with a person in the lab. 40× oil-immersion objective lens were used to perform all the experiments. For imaging with the Rh101D sensor, excitation wavelength of the laser was 543 nm and emissions were collected over the range 545-625 nm. For images with MitoTracker Green FM, LysoTracker Deep Red, excitation wavelengths recommended by the manufacturer were 488 nm for MitoTracker, 633 nm for LysoTracker. Emissions were integrated at 492-535 nm (MitoTracker), 650-800 nm (LysoTracker), respectively.
The ability of Rh101D to detect Fe^2+ in live bovine aortic endothelial cells (BAEC) was investigated by confocal microscopy. […] For Fe^2+ repleting conditions, live BAEC cells were incubated with 100 μM of ferrous ammonium sulfate (Fe (NH4)2(SO4)2) at 37° C. for overnight followed by washing with EBM medium to remove excess Fe^2+ and then 10 μM of Rh101D was added to the culture media and was incubated at 37° C. for 30 min. […] For Fe^2+-depleting conditions, 2,2-bipyridyl (Bpy) which is known to be a selective Fe^2+-chelator was used to chelate Fe^2+[33]. […] This fluorescent intensity is almost the same as that of cells without Fe^2+ or Bpy treatment.
To explore this, the distribution of exchangeable Fe^2+ pools in live BAEC cells were further investigated using Rh101D, together with colocalization experiments using other dyes—MitoTracker Green FM (a green fluorescent dye which localizes to mitochondria in live cells regardless of mitochondrial membrane potential) and LysoTracker Deep Red (a fluorescent dye that stains acidic compartments such as endosomes and lysosomes in live cells). BAEC cells (without Fe^2+ treatment) were treated with Rh101D, MitoTracker Green FM, and […].
Bovine aortic endothelial cells (BAEC) were grown at 37° C. in a humid atmosphere of 5% CO2 atmosphere in Endothelial Basal Medium (EBM, Lonza) supplemented with 5% fetal bovine serum (FBS, ATCC). Cultures were divided into 1:2 every 48 h to an approximate cell density of 1.3 million cells/ml and used for experiments after 24 h.
A Zeiss LSM 710 laser-scanning confocal microscope system was used for cell imaging experiments in collaboration with a person in the lab. 40× oil-immersion objective lens were used to perform all the experiments. For imaging with the NIRh-Fret sensor, excitation wavelength of the laser was 633 nm and emissions were collected over the range 650-850 nm. […]

[3] = tested on: Caco-2 cells; experiment: Imaging labile iron pools in hepcidin-stimulated Caco-2 cells; format: cell-based, human
Experimental: For kinetic experiment, Caco-2 cells (ATCC) were maintained in Dulbecco's minimal essential medium (DMEM, ATCC) supplemented with 10% fetal bovine serum (FBS, ATCC), 100 U/ml penicillin G, and 100 μg/ml streptomycin at 37° C. in a humid atmosphere of 5% CO2 atmosphere. The culture medium was replaced with a fresh medium every 2-3 days. After being nearly confluent, the cells were used for experiment.
The ability of NIRh-Fret to monitor the changes in cellular labile Fe^2+ stores triggered by hepcidin stimulation, a key iron regulatory hormone produced by the liver which controls iron homeostasis was studied (C. H. Park, et al., J. Biol. Chem., 2001, 276, 7806; G. Nicolas, et al, Blood Cells Mol. Dis., 2002, 29, 327; and T. Ganz, Blood, 2003, 102, 783). […] For Fe^2+ replete conditions, live Caco-2 cells were incubated with 100 μM of ferrous ammonium sulfate (Fe (NH4)2(SO4)2) at 37° C. for 6 h followed by washing with DMEM medium to remove excess Fe^2+ and then 10 μM of NIRh-Fret was added to the culture media and was incubated at 37° C. for 30 min. For hepcidin stimulated condition, Cells was treated first with 100 μM of ferrous ammonium sulfate (Fe (NH4)2(SO4)2) for 1 h, followed by addition of 0.5 μM hepcidin and then incubated for another 5 h.

[4] = tested on: zebrafish; experiment: Zebrafish confocal imaging of free Fe2+; format: in vivo
Experimental: Embryos were collected from natural spawning and raised up in embryo medium (M. Santra, et al. Chem. Commun., 2009, 10, 2115). Zebrafish mutant strain Casper was utilized because it lacks pigment, allowing better visualization (J. A. Lister, et al., Development, 1999, 126, 3757). Zebrafish embryos at 6 days post fertilization (dpf) were incubated with 10 μM NIRh-Fret in embryo media for 1 h at 28° C. In addition, iron (II) loaded zebrafish (100 μM Fe (NH4)2(SO4)2 for 8 hours incubation) were incubated with 10 μM NIRh-Fret in embryo media for 1 h at 28° C. The treated zebrafish were imaged by a LSM710 confocal microscope.
The ability of NIRh-Fret to detect free Fe^2+ in zebrafish was further investigated using confocal microscopy. […] For Fe^2+ replete conditions, live zebrafish were incubated with 100 μM of ferrous ammonium sulfate (Fe (NH4)2(SO4)2) at 28° C. for 8 h followed by washing with E3 medium to remove excess Fe^2+ and then 10 μM of NIRh-Fret was added to the culture media and was incubated at 28° C. for 30 min.
In addition, the red-colored region was observed as a well-localized red round spot, being the intestine region of the 6-days-old zebrafish.

Structure (SMILES) | toxicity for cells ([1]; culture experiments) | cell permeability [1] | fluorescence of cells with sensor only [2] | fluorescence of cells treated with Fe^2+ then Bpy [2] | fluorescence of Fe^2+-treated cells versus unsupplemented [2] | fluorescence of Bpy-treated cells [2] | fluorescence of cells with sensor only ([3]; 10 μM NIRh-Fret) | fluorescence of hepcidin-treated, iron supplemented cells versus Fe^2+ supplementation only ([3]; 100 μM ferrous ammonium sulfate 1 h, then 0.5 μM hepcidin 5 h) | fluorescence after Fe^2+, hepcidin and Bpy ([3]; 40 min 1 mM Bpy, versus Fe^2+ supplementation only) | fluorescence of Fe^2+-treated zebrafish versus unsupplemented ([4]; 100 μM ferrous ammonium sulfate 8 h, then 10 μM NIRh-Fret 30 min) | fluorescence of zebrafish with sensor only ([4]; 6-days-old zebrafish, 10 μM NIRh-Fret)
CCN(CC)c1ccc2c(c1)Oc1cc(N(CC)CC)ccc1C21c2ccccc2C(=O)N1CC/N=C(\C)c1cccc(C(C)=O)n1 [Rh-PK, (E)-2-(2-((1-(6-acetylpyridin-2-yl)ethylidene)amino)ethyl)-3′,6′-bis(diethylamino)spiro[isoindoline-1,9′-xanthen]-3-one] | non-toxic | excellent cell permeability | – | – | – | – | – | – | – | – | –
CN(C)c1ccc(/C=C/C=N/N2C(=O)c3ccccc3C23c2cc4c5c(c2Oc2c3cc3c6c2CCCN6CCC3)CCCN5CCC4)cc1 [Rh101D] | – | cell permeable | weak fluorescence | marked decrease in fluorescent intensity | significant increase in fluorescent signals | decrease in fluorescence signal | – | – | – | – | –
CCN(CC)c1ccc2c(c1)OC1=C(CCC/C1=C\C=C1\N(C)c3ccccc3C1(C)C)C21c2ccccc2C(=O)N1/N=C\C=C\c1ccc(N(C)C)cc1 (stereo not shown) [NIRh-Fret, (E)-6′-(diethylamino)-2-(((1Z,2E)-3-(4-(dimethylamino)phenyl)allylidene)amino)-4′-(2-((E)-1,3,3-trimethylindolin-2-ylidene)ethylidene)-1′,2′,3′,4′-tetrahydrospiro[isoindoline-1,9′-xanthen]-3-one] | – | – | weak fluorescence | marked decrease in fluorescent intensity | significant increase in fluorescent signals | decrease in fluorescence intensity | weak fluorescence | significant increase in fluorescent signals | decrease in fluorescence signal | significant increase in fluorescent signals | weak fluorescence
